Experiments:
Assay in all cases: KinaseProfiler enzyme profiling
Type in all cases: biochemical
MAPK1(h) = target: T1, MAPK1(h) (Homo sapiens, UniProt P27361)
T1 construct: purchased Eurofins KinaseProfiler
Experimental: (§1) Enzyme profiling services were provided by KinaseProfiler™ (Eurofin, Brussels, Belgium). The concentration of erianin was 100 nM, and total 70 kinases were tested in this in vitro screening and profiling services (2 repetitions). For more details, refer to the manufacturer’s instructions (www.eurofinsdiscoveryservices.com).

CDK3/cyclinE(h) = target: T2, CDK3/cyclinE(h) (Homo sapiens, UniProt Q00526)
T2 construct: purchased Eurofins KinaseProfiler
Experimental: as §1

PAK1(h) = target: T3, PAK1(h) (Homo sapiens, UniProt Q13153)
T3 construct: purchased Eurofins KinaseProfiler
Experimental: as §1

IKKα(h) = target: T4, IKKα(h) (Homo sapiens, UniProt O15111)
T4 construct: purchased Eurofins KinaseProfiler
T4 sequence (O15111 1-745): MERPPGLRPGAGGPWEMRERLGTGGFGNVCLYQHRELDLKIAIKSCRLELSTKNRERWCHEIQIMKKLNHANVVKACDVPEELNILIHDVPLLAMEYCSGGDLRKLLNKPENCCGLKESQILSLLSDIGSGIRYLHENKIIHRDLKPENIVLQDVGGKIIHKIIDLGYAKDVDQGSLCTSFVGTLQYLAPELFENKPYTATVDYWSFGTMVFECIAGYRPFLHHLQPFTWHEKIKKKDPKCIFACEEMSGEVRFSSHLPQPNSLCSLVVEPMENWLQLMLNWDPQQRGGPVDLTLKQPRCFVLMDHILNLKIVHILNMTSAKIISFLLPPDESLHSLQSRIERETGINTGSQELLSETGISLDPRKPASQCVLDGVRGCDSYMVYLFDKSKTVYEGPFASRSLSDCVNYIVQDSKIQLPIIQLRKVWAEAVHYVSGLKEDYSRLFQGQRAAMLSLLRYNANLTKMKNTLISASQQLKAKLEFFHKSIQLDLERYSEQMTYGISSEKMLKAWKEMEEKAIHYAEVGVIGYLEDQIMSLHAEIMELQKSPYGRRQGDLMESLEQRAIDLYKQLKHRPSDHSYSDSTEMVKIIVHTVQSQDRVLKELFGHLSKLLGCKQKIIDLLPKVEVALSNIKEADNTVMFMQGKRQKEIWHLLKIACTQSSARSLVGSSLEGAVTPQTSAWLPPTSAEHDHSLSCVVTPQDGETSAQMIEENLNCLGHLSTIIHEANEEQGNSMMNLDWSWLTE
Experimental: as §1

EGFR(L861Q)(h) = target: T5, EGFR(L861Q)(h) (Homo sapiens, UniProt P00533, L861Q)
T5 construct: purchased Eurofins KinaseProfiler
Experimental: as §1

PAK4(h) = target: T6, PAK4(h) (Homo sapiens, UniProt O96013)
T6 construct: purchased Eurofins KinaseProfiler
Experimental: as §1

MEK1(h) = target: T7, MEK1(h) (Homo sapiens, UniProt Q02750)
T7 construct: purchased Eurofins KinaseProfiler
Experimental: as §1

MAPK2(h) = target: T8, MAPK2(h) (Homo sapiens, UniProt P28482)
T8 construct: purchased Eurofins KinaseProfiler
Experimental: as §1

PKA(h) = target: T9, PKA(h) (Homo sapiens, UniProt P17612)
T9 construct: purchased Eurofins KinaseProfiler
Experimental: as §1

Pim-1(h) = target: T10, Pim-1(h) (Homo sapiens, UniProt P11309)
T10 construct: purchased Eurofins KinaseProfiler
Experimental: as §1

CDK2/cyclinA(h) = target: T11, CDK2/cyclinA(h) (Homo sapiens, UniProt P24941)
T11 construct: purchased Eurofins KinaseProfiler
Experimental: as §1

MSK1(h) = target: T12, MSK1(h) (Homo sapiens, UniProt O75582)
T12 construct: purchased Eurofins KinaseProfiler
Experimental: as §1

p70S6K(h) = target: T13, p70S6K(h) (Homo sapiens, UniProt P23443)
T13 construct: purchased Eurofins KinaseProfiler
Experimental: as §1

CaMKIV(h) = target: T14, CaMKIV(h) (Homo sapiens, UniProt Q16566)
T14 construct: purchased Eurofins KinaseProfiler
Experimental: as §1

CDK6/cyclinD3(h) = target: T15, CDK6/cyclinD3(h) (Homo sapiens, UniProt Q00534)
T15 construct: purchased Eurofins KinaseProfiler
Experimental: as §1

JAK1(h) = target: T16, JAK1(h) (Homo sapiens, UniProt P23458)
T16 construct: purchased Eurofins KinaseProfiler
Experimental: as §1

EGFR(T790M,L858R)(h) = target: T17, EGFR(T790M,L858R)(h) (Homo sapiens, UniProt P00533, L858R/T790M)
T17 construct: purchased Eurofins KinaseProfiler
Experimental: as §1

EGFR(h) = target: T18, EGFR(h) (Homo sapiens, UniProt P00533)
T18 construct: purchased Eurofins KinaseProfiler
Experimental: as §1

CDK9/cyclin T1(h) = target: T19, CDK9/cyclin T1(h) (Homo sapiens, UniProt P50750)
T19 construct: purchased Eurofins KinaseProfiler
Experimental: as §1

PAK2(h) = target: T20, PAK2(h) (Homo sapiens, UniProt Q13177)
T20 construct: purchased Eurofins KinaseProfiler
Experimental: as §1

NEK2(h) = target: T21, NEK2(h) (Homo sapiens, UniProt P51955)
T21 construct: purchased Eurofins KinaseProfiler
Experimental: as §1

EphB4(h) = target: T22, EphB4(h) (Homo sapiens, UniProt P54760)
T22 construct: purchased Eurofins KinaseProfiler
Experimental: as §1

PDK1(h) = target: T23, PDK1(h) (Homo sapiens, UniProt O15530)
T23 construct: purchased Eurofins KinaseProfiler
Experimental: as §1

GSK3β(h) = target: T24, GSK3β(h) (Homo sapiens, UniProt P49841)
T24 construct: purchased Eurofins KinaseProfiler
Experimental: as §1

SAPK4(h) = target: T25, SAPK4(h) (Homo sapiens, UniProt O15264)
T25 construct: purchased Eurofins KinaseProfiler
Experimental: as §1

PKBα(h) = target: T26, PKBα(h) (Homo sapiens, UniProt P31749)
T26 construct: purchased Eurofins KinaseProfiler
Experimental: as §1

JNK3(h) = target: T27, JNK3(h) (Homo sapiens, UniProt P53779)
T27 construct: purchased Eurofins KinaseProfiler
Experimental: as §1

PDGFRβ(h) = target: T28, PDGFRβ(h) (Homo sapiens, UniProt P09619)
T28 construct: purchased Eurofins KinaseProfiler
Experimental: as §1

JAK2(h) = target: T29, JAK2(h) (Homo sapiens, UniProt O60674)
T29 construct: purchased Eurofins KinaseProfiler
Experimental: as §1

CDK4/cyclinD3(h) = target: T30, CDK4/cyclinD3(h) (Homo sapiens, UniProt P11802)
T30 construct: purchased Eurofins KinaseProfiler
Experimental: as §1

ROCK-I(h) = target: T31, ROCK-I(h) (Homo sapiens, UniProt Q13464)
T31 construct: purchased Eurofins KinaseProfiler
Experimental: as §1

FAK(h) = target: T32, FAK(h) (Homo sapiens, UniProt Q05397)
T32 construct: purchased Eurofins KinaseProfiler
Experimental: as §1

T1 sequence (P27361 whole entry): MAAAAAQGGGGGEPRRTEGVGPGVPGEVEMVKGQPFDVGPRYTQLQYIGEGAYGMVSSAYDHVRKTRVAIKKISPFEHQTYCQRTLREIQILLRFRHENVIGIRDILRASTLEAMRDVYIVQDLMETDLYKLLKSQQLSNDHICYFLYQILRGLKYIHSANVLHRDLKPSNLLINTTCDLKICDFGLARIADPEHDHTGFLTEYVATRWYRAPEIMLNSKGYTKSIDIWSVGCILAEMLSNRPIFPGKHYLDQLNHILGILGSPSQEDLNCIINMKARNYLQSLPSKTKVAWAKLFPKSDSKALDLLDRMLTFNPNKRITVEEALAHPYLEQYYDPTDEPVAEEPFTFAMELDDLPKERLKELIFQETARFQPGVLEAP
T3 sequence (Q13153 whole entry): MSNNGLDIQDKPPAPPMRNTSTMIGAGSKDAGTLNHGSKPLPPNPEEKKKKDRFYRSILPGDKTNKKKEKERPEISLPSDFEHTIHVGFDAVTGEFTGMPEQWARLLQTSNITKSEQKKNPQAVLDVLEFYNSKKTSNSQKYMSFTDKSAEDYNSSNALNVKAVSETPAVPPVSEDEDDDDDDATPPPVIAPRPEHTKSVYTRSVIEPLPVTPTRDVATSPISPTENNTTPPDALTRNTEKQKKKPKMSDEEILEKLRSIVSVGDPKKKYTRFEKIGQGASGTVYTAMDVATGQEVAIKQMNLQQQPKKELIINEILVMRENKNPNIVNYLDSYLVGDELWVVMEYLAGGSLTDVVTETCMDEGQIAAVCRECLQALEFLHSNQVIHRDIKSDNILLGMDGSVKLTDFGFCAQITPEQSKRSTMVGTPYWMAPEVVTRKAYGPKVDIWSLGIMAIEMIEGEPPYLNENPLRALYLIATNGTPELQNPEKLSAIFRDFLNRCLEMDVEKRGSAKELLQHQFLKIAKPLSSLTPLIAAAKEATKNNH
T16 sequence (P23458 whole entry): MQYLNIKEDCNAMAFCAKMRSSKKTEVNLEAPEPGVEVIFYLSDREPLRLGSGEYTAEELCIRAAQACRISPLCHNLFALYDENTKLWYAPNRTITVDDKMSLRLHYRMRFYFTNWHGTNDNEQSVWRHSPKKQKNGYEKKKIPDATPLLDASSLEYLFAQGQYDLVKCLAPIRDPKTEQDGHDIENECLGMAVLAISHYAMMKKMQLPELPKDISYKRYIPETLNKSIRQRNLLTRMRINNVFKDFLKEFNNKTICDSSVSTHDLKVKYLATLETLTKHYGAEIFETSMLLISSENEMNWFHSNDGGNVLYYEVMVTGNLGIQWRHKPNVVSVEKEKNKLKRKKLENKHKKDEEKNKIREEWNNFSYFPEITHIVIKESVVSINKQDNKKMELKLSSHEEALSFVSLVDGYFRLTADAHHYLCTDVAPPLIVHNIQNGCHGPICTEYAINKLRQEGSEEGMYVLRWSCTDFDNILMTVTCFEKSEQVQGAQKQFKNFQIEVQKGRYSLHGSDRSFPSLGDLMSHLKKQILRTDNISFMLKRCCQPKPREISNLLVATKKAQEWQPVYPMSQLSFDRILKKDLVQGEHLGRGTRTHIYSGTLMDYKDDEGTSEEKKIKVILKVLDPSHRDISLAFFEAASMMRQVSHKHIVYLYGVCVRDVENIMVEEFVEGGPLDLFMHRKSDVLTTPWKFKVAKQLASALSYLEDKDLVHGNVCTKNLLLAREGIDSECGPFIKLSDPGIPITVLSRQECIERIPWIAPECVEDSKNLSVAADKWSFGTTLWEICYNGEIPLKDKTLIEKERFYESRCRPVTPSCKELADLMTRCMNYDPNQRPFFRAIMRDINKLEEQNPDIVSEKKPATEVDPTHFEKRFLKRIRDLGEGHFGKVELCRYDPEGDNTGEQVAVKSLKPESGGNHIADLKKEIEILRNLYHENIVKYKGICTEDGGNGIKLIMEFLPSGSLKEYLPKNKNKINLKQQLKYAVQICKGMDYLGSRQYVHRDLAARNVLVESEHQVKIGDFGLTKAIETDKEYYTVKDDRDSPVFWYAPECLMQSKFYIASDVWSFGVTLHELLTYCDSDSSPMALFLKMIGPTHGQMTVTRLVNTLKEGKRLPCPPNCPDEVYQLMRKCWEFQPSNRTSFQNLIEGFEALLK
T7 sequence (Q02750 whole entry): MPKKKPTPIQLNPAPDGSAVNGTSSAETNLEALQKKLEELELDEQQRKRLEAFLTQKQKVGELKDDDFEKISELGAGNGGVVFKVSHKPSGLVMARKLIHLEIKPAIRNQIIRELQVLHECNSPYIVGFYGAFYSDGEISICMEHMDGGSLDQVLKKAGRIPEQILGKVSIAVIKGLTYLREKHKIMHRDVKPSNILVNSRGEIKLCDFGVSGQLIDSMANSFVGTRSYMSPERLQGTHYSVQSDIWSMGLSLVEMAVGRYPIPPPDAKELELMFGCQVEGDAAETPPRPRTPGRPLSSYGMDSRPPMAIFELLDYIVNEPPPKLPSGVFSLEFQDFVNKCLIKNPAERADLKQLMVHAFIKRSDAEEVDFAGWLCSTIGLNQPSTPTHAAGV
T20 sequence (Q13177 whole entry): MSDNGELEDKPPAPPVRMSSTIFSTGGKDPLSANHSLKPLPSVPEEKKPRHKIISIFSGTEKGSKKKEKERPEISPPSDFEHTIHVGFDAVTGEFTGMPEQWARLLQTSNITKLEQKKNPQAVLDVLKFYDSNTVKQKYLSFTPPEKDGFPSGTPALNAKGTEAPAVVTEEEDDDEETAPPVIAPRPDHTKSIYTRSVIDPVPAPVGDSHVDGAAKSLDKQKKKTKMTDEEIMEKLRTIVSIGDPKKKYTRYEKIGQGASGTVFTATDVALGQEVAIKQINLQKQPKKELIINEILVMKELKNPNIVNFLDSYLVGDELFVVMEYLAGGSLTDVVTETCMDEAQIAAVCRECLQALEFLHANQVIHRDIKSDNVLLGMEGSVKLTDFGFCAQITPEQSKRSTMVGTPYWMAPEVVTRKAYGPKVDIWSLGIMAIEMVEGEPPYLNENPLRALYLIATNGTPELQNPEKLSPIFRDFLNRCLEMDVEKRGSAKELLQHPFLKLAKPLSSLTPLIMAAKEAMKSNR
T19 sequence (P50750 whole entry): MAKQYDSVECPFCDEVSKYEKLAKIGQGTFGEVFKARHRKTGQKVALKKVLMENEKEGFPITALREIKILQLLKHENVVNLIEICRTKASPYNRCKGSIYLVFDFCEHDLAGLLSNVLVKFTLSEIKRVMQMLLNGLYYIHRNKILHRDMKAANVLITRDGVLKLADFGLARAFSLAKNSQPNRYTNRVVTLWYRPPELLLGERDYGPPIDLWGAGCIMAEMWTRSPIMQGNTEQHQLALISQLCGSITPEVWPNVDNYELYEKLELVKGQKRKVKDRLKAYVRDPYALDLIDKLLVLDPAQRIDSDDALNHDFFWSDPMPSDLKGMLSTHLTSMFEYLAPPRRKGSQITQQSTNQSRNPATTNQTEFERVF
T19 sequence (O60563 whole entry partner): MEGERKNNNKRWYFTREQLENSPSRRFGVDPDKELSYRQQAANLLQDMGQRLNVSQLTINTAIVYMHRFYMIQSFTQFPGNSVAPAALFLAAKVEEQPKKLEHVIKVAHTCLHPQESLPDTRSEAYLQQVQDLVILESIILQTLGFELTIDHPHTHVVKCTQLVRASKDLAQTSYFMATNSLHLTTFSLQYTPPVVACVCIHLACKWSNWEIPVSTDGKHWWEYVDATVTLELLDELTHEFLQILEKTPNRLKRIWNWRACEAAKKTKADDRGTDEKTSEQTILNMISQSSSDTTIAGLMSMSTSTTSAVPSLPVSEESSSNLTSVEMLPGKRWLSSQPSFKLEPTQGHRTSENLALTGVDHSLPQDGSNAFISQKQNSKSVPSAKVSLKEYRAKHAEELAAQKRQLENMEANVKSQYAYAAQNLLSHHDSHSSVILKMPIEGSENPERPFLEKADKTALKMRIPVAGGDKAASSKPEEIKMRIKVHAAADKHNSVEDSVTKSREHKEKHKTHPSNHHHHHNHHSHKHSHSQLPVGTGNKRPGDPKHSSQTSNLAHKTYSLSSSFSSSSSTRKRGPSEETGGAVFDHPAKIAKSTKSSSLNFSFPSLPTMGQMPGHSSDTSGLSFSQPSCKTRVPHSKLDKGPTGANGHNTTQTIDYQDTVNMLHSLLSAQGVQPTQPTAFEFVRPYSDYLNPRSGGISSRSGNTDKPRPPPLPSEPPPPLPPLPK
T8 sequence (P28482 whole entry): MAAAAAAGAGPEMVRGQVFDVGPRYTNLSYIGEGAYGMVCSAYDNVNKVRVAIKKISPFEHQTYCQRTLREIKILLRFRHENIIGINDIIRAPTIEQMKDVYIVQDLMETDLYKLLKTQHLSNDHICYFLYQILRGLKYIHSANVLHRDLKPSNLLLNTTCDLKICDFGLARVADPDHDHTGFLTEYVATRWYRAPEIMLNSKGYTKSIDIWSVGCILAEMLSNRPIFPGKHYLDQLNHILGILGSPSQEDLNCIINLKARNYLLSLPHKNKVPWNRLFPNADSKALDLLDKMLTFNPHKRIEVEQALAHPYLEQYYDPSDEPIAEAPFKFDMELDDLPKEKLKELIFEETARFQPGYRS
T14 sequence (Q16566 whole entry): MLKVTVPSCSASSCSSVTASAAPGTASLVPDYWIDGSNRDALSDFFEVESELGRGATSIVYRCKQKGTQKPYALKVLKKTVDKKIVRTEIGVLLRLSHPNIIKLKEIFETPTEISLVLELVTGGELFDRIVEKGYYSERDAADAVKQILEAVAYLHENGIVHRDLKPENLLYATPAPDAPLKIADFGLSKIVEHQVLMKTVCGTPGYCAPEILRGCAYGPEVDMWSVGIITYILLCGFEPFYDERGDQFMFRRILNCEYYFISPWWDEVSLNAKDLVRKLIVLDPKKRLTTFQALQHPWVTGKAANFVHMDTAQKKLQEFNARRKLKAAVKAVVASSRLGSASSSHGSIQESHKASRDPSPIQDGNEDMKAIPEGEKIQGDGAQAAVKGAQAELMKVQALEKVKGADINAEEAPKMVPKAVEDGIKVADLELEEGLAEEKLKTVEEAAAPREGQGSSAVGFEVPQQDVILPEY

SMILES: COc1cc2oc(-c3ccc(O)c(O)c3)cc(=O)c2c(O)c1OC [Cirsiliol]
- activity at 10 µM (MAPK1(h)): 103%
- activity at 10 µM (CDK3/cyclinE(h)): 97%
- activity at 10 µM (PAK1(h)): 104%
- activity at 10 µM (IKKα(h)): 102%
- activity at 10 µM (EGFR(L861Q)(h); 10 µM): 108%
- activity at 10 µM (PAK4(h)): 104%
- activity at 10 µM (MEK1(h)): 105%
- activity at 10 µM (MAPK2(h)): 114%
- activity at 10 µM (PKA(h)): 100%
- activity at 10 µM (Pim-1(h); 10 µM): 112%
- activity at 10 µM (CDK2/cyclinA(h)): 91%
- activity at 10 µM (MSK1(h)): 106%
- activity at 10 µM (p70S6K(h)): 95%
- activity at 10 µM (CaMKIV(h); 10 µM): 93%
- activity at 10 µM (CDK6/cyclinD3(h)): 101%
- activity at 10 µM (JAK1(h)): 99%
- activity at 10 µM (EGFR(T790M,L858R)(h); 10 µM): 101%
- activity at 10 µM (EGFR(h)): 98%
- activity at 10 µM (CDK9/cyclin T1(h)): 98%
- activity at 10 µM (PAK2(h)): 111%
- activity at 10 µM (NEK2(h)): 105%
- activity at 10 µM (EphB4(h); 10 µM): 86%
- activity at 10 µM (PDK1(h)): 107%
- activity at 10 µM (GSK3β(h); 10 µM): 115%

SMILES: COc1ccc(CCc2cc(OC)c(OC)c(OC)c2)cc1O [Erianin]
- activity at 0.1 µM (SAPK4(h)): 103%
- activity at 0.1 µM (MAPK1(h)): 92%
- activity at 0.1 µM (PAK1(h)): 109%
- activity at 0.1 µM (IKKα(h)): 108%
- activity at 0.1 µM (EGFR(L861Q)(h)): 93%
- activity at 0.1 µM (PAK4(h)): 93%
- activity at 0.1 µM (MEK1(h)): 99%
- activity at 0.1 µM (MAPK2(h)): 104%
- activity at 0.1 µM (Pim-1(h)): 98%
- activity at 0.1 µM (PKBα(h)): 105%
- activity at 0.1 µM (CDK2/cyclinA(h)): 94%
- activity at 0.1 µM (JNK3(h)): 111%
- activity at 0.1 µM (PDGFRβ(h)): 133%
- activity at 0.1 µM (JAK2(h)): 107%
- activity at 0.1 µM (CaMKIV(h)): 91%
- activity at 0.1 µM (JAK1(h)): 117%
- activity at 0.1 µM (EGFR(T790M,L858R)(h)): 120%
- activity at 0.1 µM (EGFR(h)): 105%
- activity at 0.1 µM (CDK9/cyclin T1(h)): 97%
- activity at 0.1 µM (PAK2(h)): 107%
- activity at 0.1 µM (EphB4(h)): 108%
- activity at 0.1 µM (CDK4/cyclinD3(h)): 105%
- activity at 0.1 µM (ROCK-I(h)): 125%
- activity at 0.1 µM (GSK3β(h)): 99%
- activity at 0.1 µM (FAK(h)): 89%

SMILES: C=C1C(=O)[C@]23[C@H](O)[C@H]1CC[C@H]2[C@@]12CO[C@]3(O)[C@@H](O)[C@@H]1C(C)(C)CC[C@@H]2O [Oridonin]
- activity at 10 µM (SAPK4(h); 10 µM): 106%
- activity at 10 µM (MAPK1(h)): 63%
- activity at 10 µM (CDK3/cyclinE(h)): 70%
- activity at 10 µM (PAK1(h)): 110%
- activity at 10 µM (IKKα(h)): 80%
- activity at 10 µM (PAK4(h)): 86%
- activity at 10 µM (MEK1(h)): 92%
- activity at 10 µM (MAPK2(h)): 82%
- activity at 10 µM (PKA(h)): 108%
- activity at 10 µM (PKBα(h); 10 µM): 90%
- activity at 10 µM (CDK2/cyclinA(h)): 67%
- activity at 10 µM (MSK1(h)): 93%
- activity at 10 µM (JNK3(h); 10 µM): 54%
- activity at 10 µM (PDGFRβ(h); 10 µM): 94%
- activity at 10 µM (p70S6K(h)): 53%
- activity at 10 µM (JAK2(h); 10 µM): 90%
- activity at 10 µM (CDK6/cyclinD3(h)): 69%
- activity at 10 µM (JAK1(h)): 75%
- activity at 10 µM (EGFR(h)): 91%
- activity at 10 µM (CDK9/cyclin T1(h)): 59%
- activity at 10 µM (PAK2(h)): 99%
- activity at 10 µM (NEK2(h)): 90%
- activity at 10 µM (CDK4/cyclinD3(h); 10 µM): 109%
- activity at 10 µM (PDK1(h)): 69%
- activity at 10 µM (ROCK-I(h); 10 µM): 86%
- activity at 10 µM (FAK(h); 10 µM): 76%

— paper PMC9986241 (Signal Transduction and Targeted Therapy, 2023)
